“And” between values parts separate entries of the source, which are not always exact repeats. Equal values may be shown once.
Experiments:
[1] = tested on: ceramide levels; assay: Ceramide levels by ELISA in lung and plasma of uninfected mice, fenretinide diet supplementation; format: in vivo; details: 5 mg/kg per day in diet, 28 days, 5 mg/kg/day
Excerpt: Animals. Inbred C57BL/6-Cftr mice breeding pairs, heterozygous (HZ) at the Cftr locus, were used. All babies were genotyped between days 12 and 14 of their life. The animals were kept in cages with sterile corn bedding (Anderson, Bestmonro, La.) and maintained in ventilated racks (Lab Products). Mice were fed with either the NIH-31-modified irradiated mouse diet (Harlan Teklad, Indianapolis, Ind.) or a liquid diet starting at 14 days of age (Peptamen liquid diet; Nestle Canada, Brampton, ON). The liquid diet were freshly prepared every morning and provided in 50-mL centrifuge tubes (Fisher Scientific Ltd, Nepean, ON). Age- and gender-matched C57BL/6-Cftr+/+ (wild-type) mice, (female; n=10, male; n=31) and C57BL/6-Cftr−/− (Cftr-KO) mice (female; n=8, male; n=18) were murine pathogen-, Helicobacter- and parasite-free. They were housed (1-4 animals/cage), bred and maintained in a barrier facility unit under specific pathogen-free conditions. Experimental procedures with the mice were conducted in accordance with the Canadian Council on Animal Care guidelines and with the approval of the Animal Care Committee of the McGill University Health Center, Montreal, Quebec, Canada.
(§1) Fenretinide Diet Supplementation. Examples 2 to 6: fenretinide (Sigma-Aldrich, Oakville, ON) powder was resuspended in 95% ethanol and subsequently incorporated in the Peptamen liquid diet. It was protected from light and kept at 4° C. before being given to the mice (5 mg/kg per day per mouse). Mock-treated diets were prepared similarly by adding ethanol to the Peptamen diet but omitting the fenretinide supplementation. The diet was given every morning for 28 consecutive days with specific monitoring of the quantity consumed by the mice in each cage. Examples 7 to 12: fenretinide powder was kindly provided by Dr. Robert Smith (NIH; Bethesda, Md., USA). Fenretinide was resuspended in 95% ethanol to make a 2 μg/μL concentration. Approximately 40 μL of this preparation was incorporated into the Peptamen liquid diet (5 mg/kg per day per mouse). The prepared food containing fenretinide was then stored in the dark at 4° C. for no more than 3 hours prior to being administered to the mice. To ensure that the entire drug dose was consumed, the mice were given 10 mL of fenretinide-treated Peptamen, which represents ⅔ of the daily mouse food consumption, in the late afternoon. The remaining 5 mL of Peptamen (without fenretinide) was given the following morning. Mice were treated twice a week for 4 weeks. During the treatment period each mouse was kept in a separate cage (including WT mice) and was monitored to ensure that the entire amount of Peptamen containing the fenretinide or with out was consumed. The diet for the mock-treated control group was prepared and administered similarly to that described above, by adding the same volume of ethanol to the Peptamen diet but omitting the fenretinide supplementation.
Ceramide/Sphingolipids analysis. The concentration of ceramide in the (lung, liver, ileum, pancreas homogenates) and plasma from mice and humans were determined by ELISA^39;40 on separated lipids samples by thin layer chromatography, as described above. The phospholipids from the dry silica were resuspended in ethanol and used to coat Nunc plates specific for lipid binding. Plates were then washed, incubated with blocking buffer for 1 hr at 37° C. […]

[2] = tested on: osteoblasts and osteoclasts; assay: Osteoblast and osteoclast counts in femur (H&E, TRAP); format: in vivo, mice
Description: as §1, with “The remaining 5 mL of Peptamen (without fenretinide) was given the following morning. Mice were treated twice a week for 4 weeks.” left out, “The diet for the mock-treated control group was prepared and administered similarly to that described above, by adding the same volume of ethanol to the Peptamen diet but omitting the fenretinide supplementation.” left out

[3] = tested on: ceramide levels; assay: Plasma ceramide levels, biweekly treatment for 4 weeks; format: in vivo; details: Cftr-KO mice, 4 weeks of biweekly treatment, p<0.05
Description: Fenretinide Diet Supplementation. Examples 2 to 6: fenretinide (Sigma-Aldrich, Oakville, ON) powder was resuspended in 95% ethanol and subsequently incorporated in the Peptamen liquid diet. It was protected from light and kept at 4° C. before being given to the mice (5 mg/kg per day per mouse). Mock-treated diets were prepared similarly by adding ethanol to the Peptamen diet but omitting the fenretinide supplementation. The diet was given every morning for 28 consecutive days with specific monitoring of the quantity consumed by the mice in each cage. Examples 7 to 12: fenretinide powder was kindly provided by Dr. Robert Smith (NIH; Bethesda, Md., USA). Fenretinide was resuspended in 95% ethanol to make a 2 μg/μL concentration. Approximately 40 μL of this preparation was incorporated into the Peptamen liquid diet (5 mg/kg per day per mouse). […] During the treatment period each mouse was kept in a separate cage (including WT mice) and was monitored to ensure that the entire amount of Peptamen containing the fenretinide or with out was consumed. […]
Ceramide/Sphingolipids analysis. The concentration of ceramide in the (lung, liver, ileum, pancreas homogenates) and plasma from mice and humans were determined by ELISA^39;40 on separated lipids samples by thin layer chromatography, as described above. […]

[4] = cited from earlier work

Compound: CC1=C(/C=C/C(C)=C/C=C/C(C)=C/C(=O)Nc2ccc(O)cc2)C(C)(C)CCC1 [fenretinide, all-trans-N-(4-hydroxyphenyl) retinamide]
- Ceramide levels, fold-increase (FEN-treated over CTRL), Lung ([1]; Cftr-KO mice): 7.0 fold and 7.0 (n = 3) fold
- Ceramide levels, fold-increase (FEN-treated over CTRL), Plasma ([1]; Cftr-KO mice): 6.9 fold and 6.9 (n = 3) fold
- Ceramide levels, fold-increase (FEN-treated over CTRL), Lung ([1]; HZ mice): 2.1 fold and 2.1 (n = 3) fold
- Ceramide levels, fold-increase (FEN-treated over CTRL), Plasma ([1]; HZ mice): 2.7 fold and 2.7 (n = 3) fold
- Ceramide levels, fold-increase (FEN-treated over CTRL), Lung ([1]; WT mice): 1.4 fold and 1.4 (n = 10) fold
- Ceramide levels, fold-increase (FEN-treated over CTRL), Plasma ([1]; WT mice): 1.6 fold and 1.6 (n = 12) fold
- Number of osteoclasts, treated vs untreated ([2]; Cftr-KO and WT mice): No significant difference
- Amount of osteoblasts vs untreated Cftr-KO ([2]; Cftr-KO mice, p<0.05): increase
- Ceramide levels, increase vs untreated Cftr-KO [3]: 5.9 fold
- Generalized vascular damage in humans ([4]; clinical trials (Reynolds and Lemons 2001)): does not induce generalized vascular damage
- Reversibility of side effects following discontinuation of the treatment ([4]; neuroblastoma subjects 2-21 years (Garaventa 2003)): ≤ 7 days
- Subjects in whom side effects occurred ([4]; neuroblastoma subjects 2-21 years, oral once a day in 28-day courses (Garaventa 2003)): 15 of the 45

— patent US8680153B2, “Method for correcting a lipid imbalance in a subject” (The Royal Institution for the Advancement of …, priority 2005, dated 2014)
